Experimental data from ChEMBL document CHEMBL1123416, “Imidazo[2,1-b]benzothiazoles. 2. New immunosuppressive agents” (1986).

What was measured:
Format in all cases: functional
Mus musculus [1] = assay: Significant suppressive activity of delayed type hypersensitivity (DTH) with out inhibition of humoral immunity in mice by oral administration at dose of 50 mg/kg
Mus musculus [2] = assay: Significant suppressive activity of delayed type hypersensitivity (DTH) with out inhibition of humoral immunity in mice by oral administration at dose of 400 mg/kg
Mus musculus [3] = assay: Compound was tested for its significant suppressive activity of delayed type hypersensitivity (DTH) with out inhibition of humoral immunity in mice by oral administration at dose of 200 mg/kg
Mus musculus [4] = assay: Compound was tested for its significant suppressive activity of delayed type hypersensitivity (DTH) with out inhibition of humoral immunity in mice by oral administration at dose of 25 mg/kg

Cc1ccc(-c2cn3c(n2)sc2ccccc23)cc1O
Increase in ear thickness (Mus musculus [1]): 3.3 1/100mm | inhibition in vivo at 50 mg/kg (Mus musculus [1]): 37.7% | Increase in ear thickness (Mus musculus [2]): 3.2 1/100mm | inhibition in vivo at 400 mg/kg (Mus musculus [2]): 39.6%

CS(=O)(=O)Nc1cccc(-c2cn3c(n2)sc2ccccc23)c1
Increase in ear thickness (Mus musculus [1]): 3.8 1/100mm | inhibition in vivo at 50 mg/kg (Mus musculus [1]): 28.3% | Increase in ear thickness (Mus musculus [2]): 3.6 1/100mm | inhibition in vivo at 400 mg/kg (Mus musculus [2]): 32.1%

COC(=O)c1cc(-c2cn3c(n2)sc2ccccc23)ccc1O
Increase in ear thickness (Mus musculus [1]): 4.2 1/100mm | inhibition in vivo at 50 mg/kg (Mus musculus [1]): -5% | Increase in ear thickness (Mus musculus [2]): 2.3 1/100mm | inhibition in vivo at 400 mg/kg (Mus musculus [2]): 42.5%

O=[N+]([O-])c1cccc(-c2cn3c(n2)sc2ccccc23)c1
Increase in ear thickness (Mus musculus [1]): 3.2 1/100mm | inhibition in vivo at 50 mg/kg (Mus musculus [1]): 39.6% | Increase in ear thickness (Mus musculus [2]): 2.1 1/100mm | inhibition in vivo at 400 mg/kg (Mus musculus [2]): 60.4%

Oc1cccc(-c2cn3c(n2)sc2cc(O)ccc23)c1
Increase in ear thickness (Mus musculus [1]): 2.3 1/100mm | inhibition in vivo at 50 mg/kg (Mus musculus [1]): 43.9% | Increase in ear thickness (Mus musculus [2]): 2.4 1/100mm | inhibition in vivo at 400 mg/kg (Mus musculus [2]): 41.5%

Oc1ccccc1-c1cn2c(n1)sc1ccccc12
Increase in ear thickness (Mus musculus [1]): 3.5 1/100mm | inhibition in vivo at 50 mg/kg (Mus musculus [1]): 12.5% | Increase in ear thickness (Mus musculus [2]): 1.4 1/100mm | inhibition in vivo at 400 mg/kg (Mus musculus [2]): 65%

Oc1ccc(-c2cn3c(n2)sc2ccccc23)cc1
Increase in ear thickness (Mus musculus [1]): 3.4 1/100mm | inhibition in vivo at 50 mg/kg (Mus musculus [1]): 44.2% | Increase in ear thickness (Mus musculus [2]): 3.6 1/100mm | inhibition in vivo at 400 mg/kg (Mus musculus [2]): 40.9%

N#Cc1cccc(-c2cn3c(n2)sc2ccccc23)c1
Increase in ear thickness (Mus musculus [1]): 3 1/100mm | inhibition in vivo at 50 mg/kg (Mus musculus [1]): 6.3% | Increase in ear thickness (Mus musculus [2]): 4.7 1/100mm | inhibition in vivo at 400 mg/kg (Mus musculus [2]): -46.9%

Brc1ccc(-c2cn3c(n2)sc2ccccc23)cc1
Increase in ear thickness (Mus musculus [1]): 5.5 1/100mm | inhibition in vivo at 50 mg/kg (Mus musculus [1]): -5.8% | Increase in ear thickness (Mus musculus [2]): 4.9 1/100mm | inhibition in vivo at 400 mg/kg (Mus musculus [2]): 5.8%

Oc1cccc(-c2cn3c(nc4ccccc43)s2)c1
Increase in ear thickness (Mus musculus [1]): 2.3 1/100mm | inhibition in vivo at 50 mg/kg (Mus musculus [1]): 43.9% | Increase in ear thickness (Mus musculus [2]): 3.8 1/100mm | inhibition in vivo at 400 mg/kg (Mus musculus [2]): 7.3%

Ic1ccc(-c2cn3c(n2)sc2ccccc23)cc1
Increase in ear thickness (Mus musculus [1]): 6.4 1/100mm | inhibition in vivo at 50 mg/kg (Mus musculus [1]): -23.1% | Increase in ear thickness (Mus musculus [2]): 5.3 1/100mm | inhibition in vivo at 400 mg/kg (Mus musculus [2]): -1.9%

Cc1ccc2c(c1)sc1nc(-c3cccc(O)c3)cn12
Increase in ear thickness (Mus musculus [1]): 4.5 1/100mm | inhibition in vivo at 50 mg/kg (Mus musculus [1]): -12.5% | Increase in ear thickness (Mus musculus [2]): 3.8 1/100mm | inhibition in vivo at 400 mg/kg (Mus musculus [2]): 5%

COc1ccccc1-c1cn2c(n1)sc1ccccc12
Increase in ear thickness (Mus musculus [1]): 5.5 1/100mm | inhibition in vivo at 50 mg/kg (Mus musculus [1]): 3.5% | Increase in ear thickness (Mus musculus [2]): 4.7 1/100mm | inhibition in vivo at 400 mg/kg (Mus musculus [2]): 17.5%

CC(=O)Nc1cccc(-c2cn3c(n2)sc2ccccc23)c1
Increase in ear thickness (Mus musculus [1]): 3.5 1/100mm | inhibition in vivo at 50 mg/kg (Mus musculus [1]): 34% | Increase in ear thickness (Mus musculus [2]): 3.9 1/100mm | inhibition in vivo at 400 mg/kg (Mus musculus [2]): 26%

Cc1ccc(-c2cn3c(n2)sc2ccccc23)cc1S(C)(=O)=O
Increase in ear thickness (Mus musculus [1]): 1.9 1/100mm | inhibition in vivo at 50 mg/kg (Mus musculus [1]): 53.7% | Increase in ear thickness (Mus musculus [2]): 4.9 1/100mm | inhibition in vivo at 400 mg/kg (Mus musculus [2]): 3.9%

O=[N+]([O-])c1cc(-c2cn3c(n2)sc2ccccc23)ccc1O
Increase in ear thickness (Mus musculus [1]): 4.1 1/100mm | inhibition in vivo at 50 mg/kg (Mus musculus [1]): 22.6% | Increase in ear thickness (Mus musculus [2]): 4.2 1/100mm | inhibition in vivo at 400 mg/kg (Mus musculus [2]): 20.8%

COc1cccc(-c2cn3c(n2)sc2ccccc23)c1
Increase in ear thickness (Mus musculus [1]): 2.8 1/100mm | inhibition in vivo at 50 mg/kg (Mus musculus [1]): 12.5% | Increase in ear thickness (Mus musculus [2]): 2.1 1/100mm | inhibition in vivo at 400 mg/kg (Mus musculus [2]): 34.4%

Cc1c(-c2cccc(O)c2)nc2sc3ccccc3n12
Increase in ear thickness (Mus musculus [1]): 3.9 1/100mm | inhibition in vivo at 50 mg/kg (Mus musculus [1]): 9.3% | Increase in ear thickness (Mus musculus [2]): 3.6 1/100mm | inhibition in vivo at 400 mg/kg (Mus musculus [2]): 16.3%

c1ccc(-c2cn3c(n2)sc2ccccc23)cc1
Increase in ear thickness (Mus musculus [1]): 6 1/100mm | inhibition in vivo at 50 mg/kg (Mus musculus [1]): -3.4% | Increase in ear thickness (Mus musculus [2]): 5.7 1/100mm | inhibition in vivo at 400 mg/kg (Mus musculus [2]): 1.7%

Nc1cccc(-c2cn3c(n2)sc2ccccc23)c1
Increase in ear thickness (Mus musculus [1]): 4.1 1/100mm | inhibition in vivo at 50 mg/kg (Mus musculus [1]): 22.6% | Increase in ear thickness (Mus musculus [2]): 4.3 1/100mm | inhibition in vivo at 400 mg/kg (Mus musculus [2]): 18.9%

O=C(O)c1ccc(-c2cn3c(n2)sc2ccccc23)cc1
Increase in ear thickness (Mus musculus [1]): 3.8 1/100mm | inhibition in vivo at 50 mg/kg (Mus musculus [1]): 33.3% | Increase in ear thickness (Mus musculus [2]): 2.9 1/100mm | inhibition in vivo at 400 mg/kg (Mus musculus [2]): 49.1%

Clc1cccc(-c2cn3c(n2)sc2ccccc23)c1
Increase in ear thickness (Mus musculus [1]): 5 1/100mm | inhibition in vivo at 50 mg/kg (Mus musculus [1]): 3.8% | Increase in ear thickness (Mus musculus [2]): 5.8 1/100mm | inhibition in vivo at 400 mg/kg (Mus musculus [2]): -11.5%

Clc1ccccc1-c1cn2c(n1)sc1ccccc12
Increase in ear thickness (Mus musculus [1]): 5 1/100mm | inhibition in vivo at 50 mg/kg (Mus musculus [1]): 3.8% | Increase in ear thickness (Mus musculus [2]): 6.3 1/100mm | inhibition in vivo at 400 mg/kg (Mus musculus [2]): -21.2%

Oc1cc(O)cc(-c2cn3c(n2)sc2ccccc23)c1
Increase in ear thickness (Mus musculus [1]): 5.8 1/100mm | inhibition in vivo at 50 mg/kg (Mus musculus [1]): -26.1% | Increase in ear thickness (Mus musculus [2]): 3.6 1/100mm | inhibition in vivo at 400 mg/kg (Mus musculus [2]): 21.7%

COc1ccc(-c2cn3c(n2)sc2ccccc23)cc1
Increase in ear thickness (Mus musculus [1]): 5.3 1/100mm | inhibition in vivo at 50 mg/kg (Mus musculus [1]): -1.9% | Increase in ear thickness (Mus musculus [2]): 4.6 1/100mm | inhibition in vivo at 400 mg/kg (Mus musculus [2]): 11.5%

O=[N+]([O-])c1ccc(-c2cn3c(n2)sc2ccccc23)cc1
Increase in ear thickness (Mus musculus [1]): 5.4 1/100mm | inhibition in vivo at 50 mg/kg (Mus musculus [1]): 21.7% | Increase in ear thickness (Mus musculus [2]): 5 1/100mm | inhibition in vivo at 400 mg/kg (Mus musculus [2]): 27.5%

Oc1cccc(-c2cn3c(n2)oc2ccccc23)c1
Increase in ear thickness (Mus musculus [1]): 2.6 1/100mm | inhibition in vivo at 50 mg/kg (Mus musculus [1]): 18.8% | Increase in ear thickness (Mus musculus [2]): 2.9 1/100mm | inhibition in vivo at 400 mg/kg (Mus musculus [2]): 9.4%

COC(=O)c1ccc(-c2cn3c(n2)sc2ccccc23)cc1
Increase in ear thickness (Mus musculus [1]): 6 1/100mm | inhibition in vivo at 50 mg/kg (Mus musculus [1]): -5.3% | Increase in ear thickness (Mus musculus [2]): 4.9 1/100mm | inhibition in vivo at 400 mg/kg (Mus musculus [2]): 14%

COC(=O)c1cccc(-c2cn3c(n2)sc2ccccc23)c1
Increase in ear thickness (Mus musculus [1]): 1.9 1/100mm | inhibition in vivo at 50 mg/kg (Mus musculus [1]): 64.2% | Increase in ear thickness (Mus musculus [2]): 1.9 1/100mm | inhibition in vivo at 400 mg/kg (Mus musculus [2]): 64.2%

COc1ccc(-c2cn3c(n2)sc2ccccc23)cc1O
Increase in ear thickness (Mus musculus [1]): 4.9 1/100mm | inhibition in vivo at 50 mg/kg (Mus musculus [1]): 7.5% | Increase in ear thickness (Mus musculus [2]): 4.6 1/100mm | inhibition in vivo at 400 mg/kg (Mus musculus [2]): 13.2%

Cc1ccc(-c2cn3c(n2)sc2ccccc23)cc1[S+](C)[O-] (stereo not given)
Increase in ear thickness (Mus musculus [3]): 1.9 1/100mm | inhibition in vivo at 200 mg/kg (Mus musculus [3]): 53.7% | Increase in ear thickness (Mus musculus [4]): 3.9 1/100mm | inhibition in vivo at 25 mg/kg (Mus musculus [4]): 4.9%

COc1ccc2c(c1)sc1nc(-c3cccc(O)c3)cn12
Increase in ear thickness (Mus musculus [1]): 4.8 1/100mm | inhibition in vivo at 50 mg/kg (Mus musculus [1]): -20% | Increase in ear thickness (Mus musculus [2]): 4.9 1/100mm | inhibition in vivo at 400 mg/kg (Mus musculus [2]): -22.5%

Oc1cc(-c2cn3c(n2)sc2ccccc23)ccc1Cl
Increase in ear thickness (Mus musculus [1]): 2.4 1/100mm | inhibition in vivo at 50 mg/kg (Mus musculus [1]): 44.2% | Increase in ear thickness (Mus musculus [2]): 3.7 1/100mm | inhibition in vivo at 400 mg/kg (Mus musculus [2]): 14%

COC(=O)c1cccc(-c2cn3c(n2)sc2cc(O)ccc23)c1
Increase in ear thickness (Mus musculus [1]): 3.8 1/100mm | inhibition in vivo at 50 mg/kg (Mus musculus [1]): 7.3% | Increase in ear thickness (Mus musculus [2]): 5.1 1/100mm | inhibition in vivo at 400 mg/kg (Mus musculus [2]): -24.4%

O=C(O)c1cccc(-c2cn3c(n2)sc2ccccc23)c1
Increase in ear thickness (Mus musculus [1]): 2.8 1/100mm | inhibition in vivo at 50 mg/kg (Mus musculus [1]): 34.9% | Increase in ear thickness (Mus musculus [2]): 3.2 1/100mm | inhibition in vivo at 400 mg/kg (Mus musculus [2]): 25.6%

Clc1ccc(-c2cn3c(n2)sc2ccccc23)cc1
Increase in ear thickness (Mus musculus [1]): 4.8 1/100mm | inhibition in vivo at 50 mg/kg (Mus musculus [1]): 30.4% | Increase in ear thickness (Mus musculus [2]): 5.9 1/100mm | inhibition in vivo at 400 mg/kg (Mus musculus [2]): 14.5%

Fc1ccc(-c2cn3c(n2)sc2ccccc23)cc1
Increase in ear thickness (Mus musculus [1]): 5 1/100mm | inhibition in vivo at 50 mg/kg (Mus musculus [1]): -3.8% | Increase in ear thickness (Mus musculus [2]): 5.9 1/100mm | inhibition in vivo at 400 mg/kg (Mus musculus [2]): -13.5%

COc1ccc2nc(NC(=O)Nc3ccccc3)sc2c1 [FRENTIZOLE]
Increase in ear thickness (Mus musculus [1]): 3.5 1/100mm | inhibition in vivo at 50 mg/kg (Mus musculus [1]): 42.6%
